From patent publication US11746113B2, “Labelled cannabinergic ligands and related analogs” (priority 2020, dated 2023)

Experiments:
CB1/CB2 receptors = test: Tight/irreversible binding: reduction of [3H]CP-55,940 Bmax after ligand pretreatment; details: receptors preincubated with ligand at 10-fold its Ki; saturation binding with [3H]CP-55,940; FIG. 8C
Method: Some disclosed compounds were tested for CB1 and CB2 receptor binding affinity (Tables 1, 2 and 3). As used herein “binding affinity” is represented by the Ki value. The Ki value is the affinity constant and describes the affinity of the compound for the receptor. The lower the Ki value, the higher the affinity of the compound for the receptor. A detailed description of the methods used to test “binding affinity” of compounds is given in Makriyannis, et al., US 2007, 0135388 and in Papahatjis, et al. J. Med. Chem. (2007) 4048, the content of each of which is hereby incorporated by reference. Functional characterization of some of the disclosed compounds was performed by using the cyclic adenosine monophosphate (cAMP) assay. The functional potency of the compound is represented by the EC50 value. The lower the EC50 value, the higher the functional potency. A detailed description of the cyclic adenosine monophosphate (cAMP) assay is given in Nikas et al. J. Med. Chem. (2010) 6996. The ability of some of the ligands to bind to the CB1/CB2 receptors with a tight/irreversible binding mode was determined by measuring reductions in the binding for the radioligand [3H]CP-55,940 when the receptor preparation was pretreated with the tight/irreversible ligand, and comparing it to the untreated sample as disclosed in Ogava et al. J. Med. Chem. (2015) 58, 3104. Reductions in the specific binding (Bmax) of [^3H]CP-55,940 after ligand pretreatment indicate ability of the ligand to tight/irreversibly bind to the receptor. As detailed in Ogava et al. J Med. Chem. (2015) 58, 3104, the experiment was conducted by pretreating the sample with a concentration equal to 10-fold the compound's Ki value for the receptor in question and subsequently measuring the decrease of Bmax obtained from a saturation curve using [3H]CP-55,940.

[1] = Fluorescence properties (excitation/emission maxima); assay type: physicochemical

SMILES: CCCCCCC(C)(C)c1cc(OC(=O)C(C)(C)CCCNC(=O)c2cc3cc4c5c(c3oc2=O)CCCN5CCC4)c2c(c1)OC(C)(C)C1CCC(=O)C[C@@H]21 (stereo in doubt) [Compound 9.11, (6aS,10aR)-6,6-Dimethyl-3-(2-methyloctan-2-yl)-9-oxo-6a,7,8,9,10,10a-hexahydro-6H-benzo[c]chromen-1-yl 2,2-dimethyl-5-(11-oxo-2,3,6,7-tetrahydro-1H, 5H, 11H-pyrano[2,3-f]pyrido[3,2,1-ij]quinoline-10-carboxamido)pentanoate]
- melting point: 130 to 131 °C

SMILES: CCCCCCC(C)(C)c1cc(OC(=O)C(C)(C)CCCCNC(=O)c2cc3cc4c5c(c3oc2=O)CCCN5CCC4)c2c(c1)OC(C)(C)C1CCC(=O)C[C@@H]21 (stereo in doubt) [Compound 9.12, (6aS,10aR)-6,6-Dimethyl-3-(2-methyloctan-2-yl)-9-oxo-6a,7,8,9,10,10a-hexahydro-6H-benzo[c]chromen-1-yl 2,2-dimethyl-6-(11-oxo-2,3,6,7-tetrahydro-1H, 5H, 11H-pyrano[2,3-f]pyrido[3,2,1-ij]quinoline-10-carboxamido)hexanoate]
- melting point: 133 to 134 °C

SMILES: CC(C)(CCCCCCCl)c1cc(O)c2c(c1)OC(C)(C)[C@@H]1CC[C@@H](Cn3cc(COC(=O)CCCC[C@@H]4SC[C@@H]5NC(=O)N[C@@H]54)nn3)C[C@@H]21 [Compound 3.1, (1-{[(6aR,9R,10aR)-3-(8-Chloro-2-methyloctan-2-yl)-1-hydroxy-6,6-dimethyl-6a,7,8,9,10,10a-hexahydro-6H-benzo [c]chromen-9-yl]methyl}-1H-1,2,3-triazol-4-yl)methyl 5-[(3aS,4S,6aR)-2-oxohexahydro-1H-thieno[3,4-d]imidazol-4-yl]pentanoate]
- tight/irreversible binding mode (CB1/CB2 receptors): tight/irreversible

SMILES: CC(C)(CCCCCCCl)c1cc(O)c2c(c1)OC(C)(C)[C@@H]1CC[C@@H](Cn3cc(COC(=O)CCCCCNC(=O)CCCC[C@@H]4SC[C@@H]5NC(=O)N[C@@H]54)nn3)C[C@@H]21 [Compound 3.2, (1-{[(6aR,9R,10aR)-3-(8-Chloro-2-methyloctan-2-yl)-1-hydroxy-6,6-dimethyl-6a,7,8,9,10,10a-hexahydro-6H-benzo [c]chromen-9-yl]methyl}-1H-1,2,3-triazol-4-yl)methyl 6-{5-[(3aS,4S,6aR)-2-oxohexahydro-1H-thieno[3,4-d]imidazol-4-yl]pentanamido}hexanoate]
- tight/irreversible binding mode (CB1/CB2 receptors): tight/irreversible

SMILES: CN(C)S(=O)(=O)c1ccc(NCc2cn(C[C@@H]3CC[C@@H]4[C@@H](C3)c3c(O)cc(C(C)(C)CCCCCCCl)cc3OC4(C)C)nn2)c2nonc12 [Compound 3.3, 7-(((1-(((6aR,9R,10aR)-3-(8-Chloro-2-methyloctan-2-yl)-1-hydroxy-6,6-dimethyl-6a,7,8,9,10,10a-hexahydro-6H-benzo [c]chromen-9-yl)methyl)-1H-1,2,3-triazol-4-yl)methyl)amino)-N,N-dimethylbenzo[c][1,2,5]oxadiazole-4-sulfonamide]
- Em λmax ([1]; Acetonitrile): 583
- Ex λmax ([1]; Acetonitrile): 416
- Em λmax ([1]; Ethanol): 581
- Ex λmax ([1]; Ethanol): 415

SMILES: CC(C)(CCCCCCCl)c1cc(O)c2c(c1)OC(C)(C)[C@@H]1CC[C@@H](Cn3cc(COCCCCNC(=O)c4cc5cc6c7c(c5oc4=O)CCCN7CCC6)nn3)C[C@@H]21 [Compound 3.4, N-{4-[(1-{[(6aR,9R,10aR)-3-(8-Chloro-2-methyloctan-2-yl)-1-hydroxy-6,6-dimethyl-6a,7,8,9,10,10a-hexahydro-6H-benzo[c]chromen-9-yl]methyl}-1H-1,2,3-triazol-4-yl)methoxy]butyl}-11-oxo-2,3,6,7-tetrahydro-1H, 5H, 11H-pyrano[2,3-f]pyrido[3,2,1-ij]quinoline-10-carboxamide]
- Em λmax ([1]; Acetonitrile): 488
- Ex λmax ([1]; Acetonitrile): 437
- Em λmax ([1]; Ethanol): 477
- Ex λmax ([1]; Ethanol): 436

SMILES: CC(C)(CCCCCCCl)c1cc(O)c2c(c1)OC(C)(C)[C@@H]1CC[C@@H](Cn3cc(CNC(=O)c4cc5cc6c7c(c5oc4=O)CCCN7CCC6)nn3)C[C@@H]21 [Compound 3.13]
- Em λmax ([1]; Acetonitrile): 488
- Ex λmax ([1]; Acetonitrile): 435
- Em λmax ([1]; Ethanol): 478
- Ex λmax ([1]; Ethanol): 436

SMILES: CC(C)(CCCCCCCl)c1cc(O)c2c(c1)OC(C)(C)[C@@H]1CC[C@@H](COC(=O)CCCC[C@@H]3SC[C@@H]4NC(=O)N[C@@H]43)C[C@@H]21 [Compound 4.2, [(6aR,9R,10aR)-3-(8-Chloro-2-methyloctan-2-yl)-1-hydroxy-6,6-dimethyl-6a,7,8,9,10,10a-hexahydro-6H-benzo[c]chromen-9-yl]methyl 5-[(3a,4S,6aR)-2-oxohexahydro-1H-thieno[3,4-d]imidazol-4-yl]pentanoate]
- tight/irreversible binding mode (CB1/CB2 receptors): tight/irreversible

SMILES: CC(C)(CCCCCCCl)c1cc(O)c2c(c1)OC(C)(C)[C@@H]1CC[C@@H](COC(=O)CCCCCNC(=O)CCCC[C@@H]3SC[C@@H]4NC(=O)N[C@@H]43)C[C@@H]21 [Compound 4.4, [(6aR,9R,10aR)-3-(8-Chloro-2-methyloctan-2-yl)-1-hydroxy-6,6-dimethyl-6a,7,8,9,10,10a-hexahydro-6H-benzo[c]chromen-9-yl]methyl 6-{5-[(3aS,4S,6aR)-2-oxohexahydro-1H-thieno[3,4-d]imidazol-4-yl]pentanamido}hexanoate]
- tight/irreversible binding mode (CB1/CB2 receptors): tight/irreversible

SMILES: CC(C)(CCCCCCO[N+](=O)[O-])c1cc(O)c2c(c1)OC(C)(C)[C@@H]1CC[C@@H](COC(=O)CCCC[C@@H]3SC[C@@H]4NC(=O)N[C@@H]43)C[C@@H]21 [Compound 4.7, {(6aR,9R,10aR)-1-Hydroxy-6,6-dimethyl-3-[2-methyl-8-(nitrooxy)octan-2-yl]-6a,7,8,9,10,10a-hexahydro-6H-benzo[c]chromen-9-yl}methyl 5-[(3aS,4S,6aR)-2-oxohexahydro-1H-thieno[3,4-d]imidazol-4-yl]pentanoate]
- tight/irreversible binding mode (CB1/CB2 receptors): tight/irreversible

SMILES: CCCCCCC(C)(C)c1cc(OC(=O)c2cc3cc4c5c(c3oc2=O)CCCN5CCC4)c2c(c1)OC(C)(C)[C@@H]1CCC(=O)C[C@@H]21 [Compound 7.1, (6aR,10aR)-6,6-Dimethyl-3-(2-methyloctan-2-yl)-9-oxo-6a,7,8,9,10,10a-hexahydro-6H-benzo[c]chromen-1-yl 11-oxo-2,3,6,7-tetrahydro-1H, 5H, 11H-pyrano[2,3-f]pyrido[3,2,1-ij]quinoline-10-carboxylate]
- melting point: 132 to 133 °C

SMILES: CCCCCCC(C)(C)c1cc(OC(=O)c2cc3ccc(OC)cc3oc2=O)c2c(c1)OC(C)(C)[C@@H]1CCC(=O)C[C@@H]21 [Compound 7.2, (6aR,10aR)-6,6-Dimethyl-3-(2-methyloctan-2-yl)-9-oxo-6a,7,8,9,10,10a-hexahydro-6H-benzo[c]chromen-1-yl 7-methoxy-2-oxo-2H-chromene-3-carboxylate]
- melting point: 122 to 123 °C

SMILES: CCCCCCC(C)(C)c1cc(OC(=O)C(C)(C)CNC(=O)c2cc3cc4c5c(c3oc2=O)CCCN5CCC4)c2c(c1)OC(C)(C)[C@@H]1CCC(=O)C[C@@H]21 [Compound 9.9, (6aR,10aR)-6,6-Dimethyl-3-(2-methyloctan-2-yl)-9-oxo-6a,7,8,9,10,10a-hexahydro-6H-benzo[c]chromen-1-yl 2,2-dimethyl-3-(11-oxo-2,3,6,7-tetrahydro-1H, 5H, 11H-pyrano[2,3-f]pyrido[3,2,1-ij]quinoline-10-carboxamido)propanoate]
- melting point: 131 to 132 °C

SMILES: CCCCCCC(C)(C)c1cc(OC(=O)C(C)(C)CCNC(=O)c2cc3cc4c5c(c3oc2=O)CCCN5CCC4)c2c(c1)OC(C)(C)[C@@H]1CCC(=O)C[C@@H]21 [Compound 9.10, (6aR,10aR)-6,6-Dimethyl-3-(2-methyloctan-2-yl)-9-oxo-6a,7,8,9,10,10a-hexahydro-6H-benzo[c]chromen-1-yl 2,2-dimethyl-4-(11-oxo-2,3,6,7-tetrahydro-1H, 5H, 11H-pyrano[2,3-f]pyrido[3,2,1-ij]quinoline-10-carboxamido)butanoate]
- melting point: 132 to 133 °C
